# What was measured:
# Assay in all cases: MIC in vitro
# Type in all cases: cell-based
# [1] = test system: Klebsiella pneumoniae ATCC 10031; settings: ATCC10031, Dextrose agar, 37° C., 20 hours
# Procedure: (§1) (G. L. Daquet and Y. A. Chabbect, Techniques en bacteriologie (Bacteriological techniques), vol. 3, Flammarion Medecine Sciences, Paris, 1972 and W. B. Hugo and A. D. Rusell, Pharmaceutical Microbiology, Blackwell Scientific Publications, London, (1977)). Antibiotic medium no. 1 (seed agar) (Oxoid CM 327) Tryptone-soya broth (Oxoid CM 129) Ringer's physiological solution 1/4 (oxoid BR 52) Dextrose agar (BBL-11165) 0.1 N NaOH "Klebsiella pneumoniae" ATCC 10031 Each of the microorganisms is seeded by streaking in tubes of Antibiotic medium No. 1 (seed agar), which are then incubated at 37° C. for 20 hours. Using a culture loop, the cultures are then seeded in tryptone-soyabroth and incubated at 37° C. for 20 hours. The culture obtained is diluted to 1/4 with Ringer's physiological solution, so as to obtain a standardized suspension of 10^7 -10^9 cfu/ml for each organism. Starting from a solution of 1,000 μg/ml in 0.1 N NaOH, each product is diluted in Dextrose agar (previously melted and maintained at 50° C.), with successive dilutions so as to obtain the following concentrations: 64--32--16--8--4--2--1--0.5--0.25--0.125 μg of derivative/ml medium. For each product, the solution of each concentration is subsequently distributed into Petri dishes 10 cm in diameter, with 10 ml of medium per dish and the same number of dishes as microorganisms to be tested. As soon as the medium has cooled, the dishes are seeded with the inoculations using 0.4 ml of inoculation per dish. They are spread with a Driglasky loop and the supernatant is removed. The seeded dishes are incubated at 37° C. for 20 hours.
# [2] = test system: Proteus mirabilis ATCC 4675; settings: ATCC4675, Dextrose agar, 37° C., 20 hours
# Procedure: as §1, with “"Proteus mirabilis"” for “"Klebsiella pneumoniae"”, “4675” for “10031”
# [3] = test system: Pseudomonas aeruginosa ATCC 25115; settings: ATCC25115, Dextrose agar, 37° C., 20 hours
# Source text: as §1, with “"Pseudomonas aeruginosa"” for “"Klebsiella pneumoniae"”, “25115” for “10031”
# [4] = test system: Shigella flexnerii; settings: Dextrose agar, 37° C., 20 hours
# Procedure: (G. L. Daquet and Y. A. Chabbect, Techniques en bacteriologie (Bacteriological techniques), vol. 3, Flammarion Medecine Sciences, Paris, 1972 and W. B. Hugo and A. D. Rusell, Pharmaceutical Microbiology, Blackwell Scientific Publications, London, (1977)).
# Antibiotic medium no. 1 (seed agar) (Oxoid CM 327)
# Tryptone-soya broth (Oxoid CM 129)
# Ringer's physiological solution 1/4 (oxoid BR 52) Dextrose agar (BBL-11165) 0.1 N NaOH
# Each of the microorganisms is seeded by streaking in tubes of Antibiotic medium No. 1 (seed agar), which are then incubated at 37° C. for 20 hours. Using a culture loop, the cultures are then seeded in tryptone-soyabroth and incubated at 37° C. for 20 hours. The culture obtained is diluted to 1/4 with Ringer's physiological solution, so as to obtain a standardized suspension of 10^7 -10^9 cfu/ml for each organism.
# Starting from a solution of 1,000 μg/ml in 0.1 N NaOH, each product is diluted in Dextrose agar (previously melted and maintained at 50° C.), with successive dilutions so as to obtain the following concentrations: 64--32--16--8--4--2--1--0.5--0.25--0.125 μg of derivative/ml medium.
# For each product, the solution of each concentration is subsequently distributed into Petri dishes 10 cm in diameter, with 10 ml of medium per dish and the same number of dishes as microorganisms to be tested.
# As soon as the medium has cooled, the dishes are seeded with the inoculations using 0.4 ml of inoculation per dish. They are spread with a Driglasky loop and the supernatant is removed. The seeded dishes are incubated at 37° C. for 20 hours.
compound,measurement,setting,value
"CCn1cc(C(=O)O)c(=O)c2ccc(-n3cccc3)cc21 [Example 1, 7-(1-pyrrolyl)-1-ethyl-1,4-dihydro-4-oxo-3-quinolinecarboxylic acid]",MIC,[1],1 µg/mL
same,MIC,[2],16 µg/mL
same,MIC,[3],> 64 µg/mL
same,MIC,[4],8 µg/mL
"CCn1cc(C(=O)O)c(=O)c2cc(F)c(-n3cccc3)cc21 [Example 2, 6-fluoro-7-(1-pyrrolyl)-1-ethyl-1,4-dihydro-4-oxo-3-quinolinecarboxylic acid]",MIC,[1],0.5 µg/mL
same,MIC,[2],4 µg/mL
same,MIC,[3],16 µg/mL
same,MIC,[4],2 µg/mL
"CCn1cc(C(=O)O)c(=O)c2ccc(-n3cccc3)nc21 [Example 3, 1-ethyl-1,4-dihydro-4-oxo-7-(1-pyrrolyl)-1,8-naphthyridine-3-carboxylic acid]",MIC,[1],4 µg/mL
same,MIC,[2],> 64 µg/mL
same,MIC,[3],> 64 µg/mL
same,MIC,[4],16 µg/mL
"CCn1cc(C(=O)O)c(=O)c2cc(F)c(-n3cccc3)nc21 [Example 4, 1-ethyl-1,4-dihydro-4-oxo-6-fluoro-7-(1-pyrrolyl)-1,8-naphthyridine-3-carboxylic acid]",MIC,[1],1 µg/mL
same,MIC,[2],8 µg/mL
same,MIC,[3],32 µg/mL
same,MIC,[4],2 µg/mL
"CCn1cc(C(=O)O)c(=O)c2cnc(N3CCNCC3)nc21 [Pipemidic acid, reference compound]",MIC,[1],2 µg/mL
same,MIC,[2],16 µg/mL
same,MIC,[3],32 µg/mL
same,MIC,[4],4 µg/mL
